Test system: coiled-coil pairs within the eight-peptide interactome
Test: Thermal denaturation followed by CD at 222 nm (Tm of coiled-coil pairs)
Type: binding
Conditions: Table 1 and text, CD 222 nm, 150 μM total peptide (75 μM per peptide for heterodimers), 10 mM potassium phosphate, 100 mM potassium fluoride, pH 7, -8 to 95 °C in 1 °C steps, two-state fit
Method: CD was carried out using an Applied Photophysics Chirascan CD apparatus (Leatherhead, UK) using a 200-μl sample in a CD cell with a 1-mm path length. Samples contained 150 μM total peptide (Pt) concentration at equimolar concentration for heterodimeric solutions (i.e., 75 μM per peptide) and suspended in 10 mM potassium phosphate and 100 mM potassium fluoride at pH 7 1 h prior to analysis. The CD spectra of samples were scanned between 300 nm and 190 nm in 1-nm steps, averaging 0.5 s at each wavelength. Three scans at 20 °C were averaged to assess helical levels and coiled-coil structure.
Thermal denaturations were performed at 150 μM Pt in 10 mM potassium phosphate and 100 mM potassium fluoride, pH 7, using an Applied Photophysics Chirascan CD instrument (Leatherhead, UK). The temperature ramp was set to stepping mode using 1 °C increments and paused for 30 s at each temperature before measuring ellipticity at 222 nm. For all temperature denaturation experiments, data collection was started at − 8 °C, and at this temperature, the peptide solutions remained aqueous. Data collection continued to 95 °C. Data points for thermal denaturation profiles represent the averaged signal after 4 s of data collection. Melting profiles (see Fig. 3a) were ≥ 95% reversible with equilibrium denaturation curves fitted to a two-state model, derived via modification of the Gibbs–Helmholtz equation [6], [45], [46], to yield the melting temperature (Tm). […] Tm values were determined by least-squares fitting of the denaturation assuming a two-state folding model that is widely used for coiled coils and provided an excellent fit to our data.

Sequence “ASEIAALEAENAALEYKNAALKAKIAALKGAP [Peptide 8, N- and C-capped coiled-coil peptide; 8-8 is the homomeric sample]” has a Tm (listed as 8-8) of 27 °C.

Sequence “ASENAALEAKIAALKYEIAALEAKNAALKGAP [Peptide 6, N- and C-capped coiled-coil peptide; 6-6 is the homomeric sample]” has a Tm of 53 °C.

“ASENAALEAKNAALKYKIAALKAEIAALEGAP [Peptide 1, N- and C-capped coiled-coil peptide; 1-1 is the homomeric sample]” showed a Tm of 32 °C.

For “ASKIAALKAKNAALKYENAALEAEIAALEGAP [Peptide 7, N- and C-capped coiled-coil peptide; 7-7 is the homomeric sample]”, the Tm (listed as 7-7) was 11 °C.

Work on “ASKNAALKAEIAALEYKIAALKAENAALEGAP [Peptide 5, N- and C-capped coiled-coil peptide; 5-5 is the homomeric sample]” yielded a Tm of 53 °C.

“ASKNAALKAENAALEYEIAALEAKIAALKGAP [Peptide 2, N- and C-capped coiled-coil peptide; 2-2 is the homomeric sample]” was tested, and the Tm was 20 °C.

Source: PMC4751974, “Deriving Heterospecific Self-Assembling Protein–Protein Interactions Using a Computational Interactome Screen” (Journal of Molecular Biology, 2016)
